Measured values from patent publication US10458916B2, “Rapid tests for the detection of inhibitors of enzymes and human exposure to the same” (priority 2011, dated 2019).

Experiments:
Carboxylesterase (CE) = assay: Rapid ticket test with lyophilized carboxylesterase (CE) and NMI substrate discs, no sample oxidation; settings: without oxidation
AChE [1] = molecular target: T1, AChE (Electrophorus electricus, UniProt O42275); assay: Rapid ticket test for AChE inhibitors with lyophilized AChE and NMI substrate discs, hue ratio by reader; settings: without oxidation
Method: Filter discs ( 3/16″ diameter) of porous matrix Surewick Sample Pad C248 SA3J035V06 (Millipore). were punched from sheets using a manual punch and die.
N-methyl indoxyl (NMI) acetate (100 mg, Sigma-Aldrich) was dissolved in 100 mL 200 proof (100%) USP ethyl alcohol (Sigma-Aldrich) for a final concentration of 1 mg/mL and added to the beaker containing the filter pads. The filter discs were mixed gently with a spatula for five minutes. The discs were then carefully removed from the solution and spread out on a polystyrene sheet and dried at 45° C. for two hours. The filter discs were then removed from the oven and stored in a resealable plastic bag with desiccant. […]
The tickets were allowed to react for 15 minutes at room temperature and then inserted into the handheld fluorescence reader comprised of low light color cameras, 400 nm UV LED and custom color analysis software (FIG. 2). Enzyme inhibition was detected by the difference in the hue measurement of the Test Sample compared to the negative control (FIG. 4). The reader calculates a ratio of the hue measured in the test sample well to the hue measured in the negative control well.
Analysis was alternatively performed by visual observation of the ticket using a 400 nm UV LED flashlight (FIGS. 7 and 8). Visually, inhibition was detected directly based on the decrease in fluorescence of the test sample compared to the negative control.

[2] = molecular target: T2, cholinesterase in human plasma (Homo sapiens, UniProt P06276); assay: Detection of cholinesterase inhibition in spiked human plasma on the NMI ticket; type: biochemical; settings: human plasma pool spiked to final 100 ppm oxamyl, incubated overnight (22 hours) at room temperature; control zone unspiked pool
T2 construct: from tissue; host or cells: human plasma pool

AChE [3] = molecular target: T1, AChE; assay: Effect of heating the AChE reaction vials on time of detection of a positive sample; type: biochemical, eel; design: purchased Sigma-Aldrich; settings: 0.1 ppm oxamyl in water; for Detection result, Heated: heating block 40° C.; for Detection result, Not Heated: room temperature (21° C.)
Method: Water obtained from reverse osmosis treatment was spiked with 0.1 ppm oxamyl, a carbamate pesticide. The pesticide-contaminated sample was tested using the procedure described in Example 4. Two sets of two reagent vials containing AChE were opened. To the first vial of each set was added 1 mL of the test sample containing pesticide. To the second vial of each set was added 1 mL of a negative control water. All vials were thoroughly mixed. One set of vials was placed in a heating block set at 40° C., while the other set of vials was allowed to stand at room temperature (21° C.). From each set of vials, 50 μL was sampled at 5, 10, 15, and 20 minutes and transferred to corresponding reaction zones in test tickets. After 15 minutes incubation, the fluorescence in the reaction zones of each ticket were measured on a reader.

T1 sequence (O42275 24-633): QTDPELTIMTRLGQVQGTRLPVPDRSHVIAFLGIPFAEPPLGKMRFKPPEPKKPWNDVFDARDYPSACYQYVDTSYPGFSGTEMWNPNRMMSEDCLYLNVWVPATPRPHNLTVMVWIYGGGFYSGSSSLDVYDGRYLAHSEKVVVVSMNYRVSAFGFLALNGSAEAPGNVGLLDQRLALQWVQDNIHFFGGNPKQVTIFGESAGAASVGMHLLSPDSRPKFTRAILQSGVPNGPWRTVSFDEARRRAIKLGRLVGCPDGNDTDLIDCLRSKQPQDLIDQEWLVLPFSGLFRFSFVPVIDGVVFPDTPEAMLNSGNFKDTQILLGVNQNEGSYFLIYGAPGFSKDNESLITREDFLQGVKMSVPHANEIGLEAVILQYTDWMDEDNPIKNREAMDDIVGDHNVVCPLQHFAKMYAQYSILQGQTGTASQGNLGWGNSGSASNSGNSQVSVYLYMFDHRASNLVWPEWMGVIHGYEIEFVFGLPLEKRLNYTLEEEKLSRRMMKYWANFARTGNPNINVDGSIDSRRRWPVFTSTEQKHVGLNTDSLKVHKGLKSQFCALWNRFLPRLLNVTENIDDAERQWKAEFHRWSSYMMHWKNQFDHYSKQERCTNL
T2 sequence (P06276 29-602): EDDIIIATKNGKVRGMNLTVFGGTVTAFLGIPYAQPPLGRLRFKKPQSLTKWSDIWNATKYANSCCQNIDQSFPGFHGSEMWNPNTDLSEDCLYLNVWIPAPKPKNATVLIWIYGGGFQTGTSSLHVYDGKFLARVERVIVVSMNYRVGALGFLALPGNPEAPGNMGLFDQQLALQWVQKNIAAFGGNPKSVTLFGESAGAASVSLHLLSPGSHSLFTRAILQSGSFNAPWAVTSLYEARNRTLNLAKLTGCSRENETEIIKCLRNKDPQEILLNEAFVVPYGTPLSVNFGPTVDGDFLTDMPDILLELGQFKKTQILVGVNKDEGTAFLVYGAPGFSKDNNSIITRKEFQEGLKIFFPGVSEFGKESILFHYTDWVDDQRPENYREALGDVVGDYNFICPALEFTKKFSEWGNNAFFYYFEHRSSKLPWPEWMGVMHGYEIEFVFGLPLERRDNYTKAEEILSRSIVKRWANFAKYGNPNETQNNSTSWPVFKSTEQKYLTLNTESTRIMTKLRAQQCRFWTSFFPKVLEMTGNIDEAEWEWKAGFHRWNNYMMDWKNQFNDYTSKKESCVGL

SMILES: COP(N)(=O)SC (stereo not shown) [Methamidophos, methamidophos]
- Reaction with CE compared with AChE (in words) (Carboxylesterase (CE)): react more strongly with CE than with AChE

SMILES: COP(=S)(OC)Oc1ccc([N+](=O)[O-])cc1 [Methyl Parathion, methyl parathion]
- Reaction with CE compared with AChE (in words) (Carboxylesterase (CE)): react more strongly with CE than with AChE

SMILES: CNC(=O)O/N=C(\SC)C(=O)N(C)C [Oxamyl, oxamyl]
- Reaction with AChE (in words) (AChE [1]): react strongly with AChE
- hue ratio [2]: 3.10
- Detection result, Heated (AChE [3]; 5 min): positive
- Detection result, Heated (AChE [3]; 10 min): positive
- Detection result, Heated (AChE [3]; 15 min): positive
- Detection result, Heated (AChE [3]; 20 min): positive
- Detection result, Not Heated (AChE [3]; 5 min): negative
- Detection result, Not Heated (AChE [3]; 10 min): negative
- Detection result, Not Heated (AChE [3]; 15 min): positive
- Detection result, Not Heated (AChE [3]; 20 min): positive

SMILES: CNC(=O)O/N=C/C(C)(C)SC [Aldicarb, aldicarb]
- Reaction with AChE (in words) (AChE [1]): react strongly with AChE
